Test results as given in patent US20070225291A1, “Substituted Pyrazinone Compounds for the Treatment of Inflammation” (Pfizer Inc., priority 2003, published 2007).

Biological target: T1, IKK-2 (Homo sapiens, UniProt O14920)
T1 construct: made in house; host or cells: baculovirus-infected insect cells (SF9)
T1 sequence (O14920 1-756): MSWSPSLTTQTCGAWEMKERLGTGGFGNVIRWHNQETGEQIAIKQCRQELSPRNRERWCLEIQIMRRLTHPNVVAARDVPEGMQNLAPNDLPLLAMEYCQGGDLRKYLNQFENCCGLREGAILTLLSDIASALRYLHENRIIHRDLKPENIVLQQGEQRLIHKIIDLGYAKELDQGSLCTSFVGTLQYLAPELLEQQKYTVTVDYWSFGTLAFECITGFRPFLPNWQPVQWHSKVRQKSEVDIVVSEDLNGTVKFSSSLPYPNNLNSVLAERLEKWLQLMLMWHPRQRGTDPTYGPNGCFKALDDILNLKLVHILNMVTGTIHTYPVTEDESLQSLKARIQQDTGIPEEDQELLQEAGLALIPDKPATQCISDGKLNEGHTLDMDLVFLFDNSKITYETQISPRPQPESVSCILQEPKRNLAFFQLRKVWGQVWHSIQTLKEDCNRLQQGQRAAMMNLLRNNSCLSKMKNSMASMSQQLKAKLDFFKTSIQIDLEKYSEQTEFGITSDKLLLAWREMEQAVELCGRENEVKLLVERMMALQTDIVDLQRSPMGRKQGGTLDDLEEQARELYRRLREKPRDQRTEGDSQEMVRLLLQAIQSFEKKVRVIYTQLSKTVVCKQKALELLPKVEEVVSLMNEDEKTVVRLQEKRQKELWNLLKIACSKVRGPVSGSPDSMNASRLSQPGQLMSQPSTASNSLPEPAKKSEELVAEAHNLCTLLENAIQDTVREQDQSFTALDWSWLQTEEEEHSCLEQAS
Assay: IKK-2 Resin Enzyme Assay (IKK-2 IC50 determination)
Format: biochemical
Conditions: rhIKK-2 homodimer; biotinylated IκBα peptide 5 μM, 1 μM ATP, 25° C., 30 min
Text: cDNAs of human IKK-1 and IKK-2 were amplified by reverse transcriptase-polymerase chain reaction from human placental RNA (Clonetech). hIKK-1 was subcloned into pFastBac HTa (Life Technologies) and expressed as N-terminal His6-tagged fusion protein. The hIKK-2 cDNA was amplified using a reverse oligonucleotide primer which incorporated the peptide sequence for a FLAG-epitope tag at the C-terminus of the IKK-2 coding region (DYKDDDDKD). The hIKK-2:FLAG cDNA was subcloned into the baculovirus vector pFastBac. The rhIKK-2 (S177S, E177E) mutant was constructed in the same vector used for wild type rhIKK-2 using a QuikChange™ mutagenesis kit (Stratagene). Viral stocks of each construct were used to infect insect cells grown in 40L suspension culture. […] Cell lysates were stored at −80° C. until purification of the recombinant proteins was undertaken as described below.
A 10-liter culture of baculovirus-expressing IKK-2 tagged with FLAG peptide was centrifuged and the cell pellet (MOI=0.1 and I=72 hrs) was re-suspended in buffer A. These cells were microfluidized, and centrifuged at 100,000×g for 45 min. Supernatant was passed over a G-25 column equilibrated with Buffer A. Protein peak was collected and incubated with anti-FLAG affinity resin on a rotator overnight in buffer B. The resin was washed in batch with 10-15 bed volumes of buffer C. Washed resin was poured into a column and rhIKK-2 homodimer was eluted using 5 bed volumes of buffer B containing FLAG peptide. 5 mM DTT, 0.1% NP-40 and BSA (concentrated to 0.1% in final amount) was added to the eluted enzyme before concentrating in using an Amicon membrane with a molecular weight cut-off of 30 kDa. Enzyme was aliquoted and stored at −80° C.
IKK-2 kinase activity was measured using a biotinylated IκBα peptide (Gly-Leu-Lys-Lys-Glu-Arg-Leu-Leu-Asp-Asp-Arg-His-Asp-Ser32-Gly-Leu-Asp-Ser36-Met-Lys-Asp-Glu-Glu) (American Peptide Co.). 20 ul of the standard reaction mixture contained 5 μM biotinylated IκBA peptide, 0.1 μCi/reaction [γ-^33P] […] ATP was measured using a Top-Count NXT (Packard).

SMILES	IC50 [nM]
Nc1nc(-c2cc(F)ccc2O)cn(C2CCCNC2)c1=O (stereo not drawn) [Example 2, 3-amino-5-(5-fluoro-2-hydroxyphenyl)-1-piperidin-3-ylpyrazin-2(1H)-one]	903
Nc1nc(-c2ccccc2O)cn(C2CCCNC2)c1=O (stereo not drawn) [Example 1, 3-amino-5-(2-hydroxyphenyl)-1-piperidin-3-ylpyrazin-2(1H)-one]	1080
Nc1nc(-c2ccc(F)cc2O)cn(C2CCCNC2)c1=O (stereo not drawn) [Example 3, 3-amino-5-(4-fluoro-2-hydroxyphenyl)-1-piperidin-3-ylpyrazin-2(1H)-one]	1790
